Assay results: article PMC10821124, “Dimeric 3,5-Bis(benzylidene)-4-piperidones: Tumor-Selective Cytotoxicity and Structure-Activity Relationships” (Medicines, 2024)
“Also recorded” adds a separate entry of the source. Read-outs that look alike come from different tables or passages of the source.

What was measured:
[1] = system: human oral squamous cell carcinoma HSC-2 cells; assay: Cytotoxicity, MTT method, HSC-2 cells; assay type: cell-based; conditions: for CC50: Homo sapiens, read-out: CC50 HSC-2; for SI (selectivity index) HSC-2: average CC50 non-malignant cells / CC50 HSC-2
Protocol: (§1) Human promyelocytic leukemia [HL-60 (RCB3683)] (purchased from Riken Cell Bank, Tsukuba, Japan) was cultured at 37 °C in RPMI1640 medium (Fujifilm Wako Pure Chemical Co., Osaka, Japan) supplemented with 10% heat (56 °C, 30 min) inactivated FBS (Sigma-Aldrich Inc. St. Louis, MO, USA), 100 U/mL penicillin G, and 100 µg/mL streptomycin sulfate in a humidified 5% CO2 incubator (MCO-170 AICUVD-P, Panasonic Healthcare Co., Ltd., Gunma, Japan). Human oral squamous cell carcinoma (OSCC) cell lines derived from tongue [HSC-2 (RCB1945), HSC-3 (RCB1975), HSC-4 (RCB1902)] (Riken Cell Bank), and human normal oral cells (gingival fibroblasts, HGF; pulp cell, HPC; periodontal ligament fibroblast, HPLF), established from the first premolar extracted tooth in the lower jaw and periodontal tissues of a child, according to the guidelines of Meikai University Ethic Committee (No. A0808), were cultured in DMEM medium (Fujifilm Wako Pure Chemical Co.) supplemented with 10% FBS and antibiotics. The compounds in Series 2–4 were evaluated against HL-60, HSC-2, HSC-3, HSC-4, HGF, HPC, and HPLF cells based on a literature procedure, as described previously. In brief, near confluent cells were incubated in triplicate for 48 h at 37 °C with different concentrations ([…], 6.3, 12.5, 25, 50, 100 µM) of the compounds; then, viable cell numbers were measured using the MTT method. From the dose–response curve, a 50% cytotoxic concentration (CC50) was determined. All samples were dissolved in dimethylsulfoxide (DMSO). The toxicity of DMSO alone was calculated and subtracted. The CC50 values were determined from dose–response curves.

[2] = system: caspases-3 and -7; assay: Caspase-Glo 3/7 assay in HSC-2 cells; assay type: cell-based, human; conditions: 0.5 µM, 24 h
Protocol: Both 3b (0.5 µM) and 3c (0.5 µM) were examined for their ability to activate caspases-3 and -7 in HSC cells. This determination was accomplished using the Caspase-Glo 3/7 assay (Promega Corporation, Madison, WI, USA). In brief, this assay uses a tetrapeptide sequence DEVD, which is optimized for caspase and luciferase activities. The cell lysate was incubated with the Caspase-Glo reagent (buffer and substrate) for 1 h and the luminescence was measured. The resultant luminescent signal produced by luciferase was confirmed to be proportional to the amount of caspase-3 and -7 activity.

[3] = system: human promyelocytic leukemia HL-60 cells; assay: Cytotoxicity, MTT method, HL-60 cells; assay type: cell-based; conditions: for CC50: Homo sapiens, read-out: CC50 HL-60; for SI (selectivity index) HL-60: average CC50 non-malignant cells / CC50 HL-60
Protocol: as §1

[4] = system: human tumour cell lines HL-60, HSC-2, HSC-3, HSC-4; assay: Cytotoxicity, average over the four human tumour cell lines; assay type: cell-based; conditions: for CC50: Homo sapiens, read-out: AVE. CC50, human tumour cell lines; for AVE SI: average of the four SI values
Protocol: as §1

[5] = system: HCT116 cells; assay: Mitochondrial membrane potential determination in HCT116 cells; assay type: cell-based, human; conditions: 48 h, tetramethylrhodamine ethyl ester
Protocol: The determination of the IC50 values of 3b, 3c, and 5-FU on the mitochondrial membrane potential in HCT 116 cells was undertaken using a literature procedure. In brief, the cells were incubated at 37 °C in an atmosphere of 5% carbon dioxide for 24 h. The compounds were dissolved in DMSO, added to the cells, and incubated for 48 h. Then, […], and 2,4-dinitrophenol (DNP) were added to the cells, which were incubated for 0.5 h. After the addition of tetramethylrhodamine ethyl ester, the fluorescence of the cells was determined using a plate reader.

[6] = system: HSC-2 cells; assay: Cell cycle analysis of HSC-2 cells; assay type: cell-based, human; conditions: 0.5 µM, 24 h
Protocol: The effect of 3b (0.5 µM) and 3c (0.5 µM) on the phase distribution of HSC-2 cells after 24 h of incubation was determined using the protocol of a manufacturer (BD Pharmingen, BD BioSciences, San Jose, CA, USA). In brief, treated and untreated cells were suspended at a density of ~1 × 10^6 cells/mL in cooled phosphate-buffered saline (PBS) without calcium and magnesium ions and fixed with 70% ethanol overnight at −20 °C. The cells were washed with cooled PBS and re-suspended in a propidium iodide/RNase staining buffer in the dark at room temperature for 0.25 h. Both acquisition and analysis were performed using EPICS ALTRA (Beckman Coulter, Brea, CA, USA) and EXPO 32 software.

[7] = Cytotoxicity, average over the three human normal cells; assay type: cell-based; conditions: human, average of HGF, HPC, HPLF; read-out: AVE CC50, human normal cells
Protocol: as §1

[8] = system: HCT116 cells; assay: Reactive oxygen species determination in HCT116 cells; assay type: cell-based, human; conditions: for Generation of reactive oxygen species (ROS): 48 h, dichlorofluorescein fluorescence
Protocol: The determination of the effects of 3b, 3c, and 5-FU on the generation of reactive oxygen species in HCT 116 cells was accomplished using a literature procedure. In brief, the cells were incubated at 37 °C in an atmosphere of 5% carbon dioxide for 24 h. Subsequently, solutions of the compounds in DMSO were added to the cells, which were incubated for 48 h. After 2′,7′-dichlorofluorescein was added to the cells, incubation continued for another 0.5 h and the fluorescence of the cells was measured spectrophotometrically (excitation wavelength 485 nm; emission wavelength, 530 nm).

[9] = Cytotoxicity, MTT method, HPC non-malignant cells; assay type: cell-based, human; conditions: human, pulp cells (HPC), non-malignant, mean ± SD
Protocol: as §1

[10] = system: human oral squamous cell carcinoma HSC-3 cells; assay: Cytotoxicity, MTT method, HSC-3 cells; assay type: cell-based; conditions: for CC50: Homo sapiens, read-out: CC50 HSC-3; for SI (selectivity index) HSC-3: average CC50 non-malignant cells / CC50 HSC-3
Protocol: as §1

[11] = Cytotoxicity, MTT method, HGF non-malignant cells; assay type: cell-based, human; conditions: human, gingival fibroblasts (HGF), non-malignant, mean ± SD
Protocol: as §1

[12] = system: human oral squamous cell carcinoma HSC-4 cells; assay: Cytotoxicity, MTT method, HSC-4 cells; assay type: cell-based; conditions: for CC50: Homo sapiens, read-out: CC50 HSC-4; for SI (selectivity index) HSC-4: average CC50 non-malignant cells / CC50 HSC-4
Protocol: as §1

[13] = system: PARP1; assay: PARP1 cleavage, western blot in HSC-2 cells; assay type: cell-based, human; conditions: 0.5 µM, 24 h
Protocol: (§2) Antibodies against cleaved PARP1, bim, bax, puma, and bak were obtained from Cell Signaling Technology (Beverley, MA, USA) while the anti-actin antibody was purchased from Santa Cruz Biotechnology (Santa Cruz, CA, USA).
(§3) The HSC-2 cells were cultured for 24 h and, then, treated with 0.5 µM of 3b or 3c for 24 h. The cells were scraped and collected in lysis buffer (purchased from Cell Signaling Technology), which contained 1 mM of phenylmethanesulfonyl fluoride and one tablet of protease inhibitor cocktail (Complete, EDTA-free; Roche Diagnostics, Mannheim, Germany). The proteins were subjected to 8% SDS-polyacrylamide gel electrophoresis and, then, transferred to a polyvinylidene difluoride membrane saturated with 5% nonfat dry milk. The membranes were incubated with rabbit monoclonal anti-cleaved PARP (Cell Signaling Technology, Beverly, MA, USA; #9541, 1:1000), or beta-actin antibody (Sigma-Aldrich, St Louis, MO, USA; A5441, 1:10,000) for 1 h at room temperature. The membranes were washed with Tris-buffered saline containing 0.1% Tween 80. And, the secondary antibodies were horseradish peroxidase-conjugated goat antimouse or antirabbit, which reacted with the chemoluminescent substrate system and were exposed to X-ray films.

[14] = Cytotoxicity, MTT method, HPLF non-malignant cells; assay type: cell-based, human; conditions: human, periodontal ligament fibroblasts (HPLF), non-malignant, mean ± SD
Protocol: as §1

[15] = system: bim, bax, puma, and bak; assay: Pro-apoptotic proteins bim, bax, puma, bak in HSC-2 cells; assay type: cell-based, human; conditions: 24 h, data not shown
Protocol: as §2, §3

[16] = system: human normal cells HGF, HPC, HPLF; assay: Cytotoxicity, average over the three human normal cells; assay type: cell-based; conditions: average of HGF, read-out: AVE CC50, human normal cells
Protocol: as §1

[17] = system: human pulp cells (HPC); assay: Cytotoxicity, MTT method, HPC non-malignant cells; assay type: cell-based; conditions: 48 h, mean ± SD
Protocol: as §1

[18] = system: human gingival fibroblasts (HGF); assay: Cytotoxicity, MTT method, HGF non-malignant cells; assay type: cell-based; conditions: 48 h, mean ± SD
Protocol: as §1

[19] = system: human periodontal ligament fibroblasts (HPLF); assay: Cytotoxicity, MTT method, HPLF non-malignant cells; assay type: cell-based; conditions: 48 h, mean ± SD
Protocol: as §1

[20] = average of HL-60, HSC-2, HSC-3, HSC-4

Row | Compound | CC50 ([1]; HSC-2, 48 h, MTT, mean ± SD) [µM] | SI (selectivity index) HSC-2 [1] | Induction of caspases-3 and -7 [2] | CC50 ([3]; HL-60, 48 h, MTT, mean ± SD) [µM] | SI (selectivity index) HL-60 [3] | CC50 [4, 20] [µM] | AVE SI [4] | Effect on mitochondrial membrane potential (MMP) [5] | Cell cycle effect [6] | CC50 at 48 h [7] [µM] | Generation of reactive oxygen species (ROS) [8] | CC50 at 48 h [9] [µM] | CC50 ([10]; HSC-3, 48 h, MTT, mean ± SD) [µM] | SI (selectivity index) HSC-3 [10] | CC50 at 48 h [11] [µM] | CC50 ([12]; HSC-4, 48 h, MTT, mean ± SD) [µM] | SI (selectivity index) HSC-4 [12] | Cleavage of PARP1 [13] | CC50 at 48 h [14] [µM] | Effect on pro-apoptotic proteins bim, bax, puma, bak [15] | further results
1 | O=C1/C(=C/c2ccc(F)cc2)CN(C(=O)CC(=O)N2C/C(=C\c3ccc(F)cc3)C(=O)/C(=C/c3ccc(F)cc3)C2)C/C1=C\c1ccc(F)cc1 [Compound 3b] | 0.041 ± 0.004 | 103 | induced caspases-3 and -7 | 0.028 ± 0.001 | 151 | 0.04 | 133 | huge effect on lowering the MMP | G2M arrest in the cell cycle; also recorded: causes a G2/M arrest | 4.23 | cause an increase in the ROS concentrations | 3.2 ± 1.1 | 0.046 ± 0.011 | 92.0 | 3.8 ± 0.71 | 0.023 ± 0.003 | 184 | causing the cleavage of PARP; also recorded: leads to the cleavage of PARP1 | 5.7 ± 0.67 | no changes in the concentrations of these proteins were observed | CC50 values in all four bioassays (range in words) ([4]; HL-60, HSC-2, HSC-3, HSC-4): double-digit nanomolar range; ROS generation, potency relative to 3c [8]: approximately twice the potency of 3c
2 | O=C1/C(=C/c2ccc(Cl)cc2)CN(C(=O)CC(=O)N2C/C(=C\c3ccc(Cl)cc3)C(=O)/C(=C/c3ccc(Cl)cc3)C2)C/C1=C\c1ccc(Cl)cc1 [Compound 3c] | 5.5 ± 0.65 | 7.51 | does not exert these effects | 5 ± 0.76 | 8.26 | 7.25 | 6.62 | no effect at the concentrations utilized | does not exert these effects | 41.3 | cause an increase in the ROS concentrations | 38 ± 8.7 | 13 ± 2.2 | 3.18 | 41 ± 2.5 | 5.5 ± 0.96 | 7.51 | does not exert these effects | 45 ± 11 | no changes in the concentrations of these proteins were observed | –
3 | N[C@@H](Cc1ccc(N(CCCl)CCCl)cc1)C(=O)O [Melphalan, reference compound] | – | 5.61 | – | – | 75.6 | – | 21.0 | – | – | > 50 | – | – | – | 1.46 | – | – | 1.46 | – | – | – | CC50 ([1]; HSC-2, 48 h): 12 ± 2.7 µM; CC50 ([3]; HL-60, 48 h): 0.89 ± 0.17 µM; CC50 [4]: 26.2 µM; CC50 [16]: 67.3 µM; CC50 [17]: 37 ± 7.3 µM; CC50 ([10]; HSC-3, 48 h): 46 ± 31 µM; CC50 [18]: 73 ± 15 µM; CC50 ([12]; HSC-4, 48 h): 46 ± 6 µM; CC50 [19]: 92 ± 7.8 µM
